Structures are written as SMILES.

A word on the EC50: it is the concentration at which the effect is half-maximal. Read a high EC50 as lower potency in that assay.

For the experiment, the target named is T1, IDO1 (Homo sapiens, UniProt P14902).
T1 construct: HeLa cells were treated with a test compound in the presence of IFNγ, which induces IDO1 expression; host or cells: H1-HeLa cells, IDO1 induced with IFNγ
T1 sequence (P14902 whole entry): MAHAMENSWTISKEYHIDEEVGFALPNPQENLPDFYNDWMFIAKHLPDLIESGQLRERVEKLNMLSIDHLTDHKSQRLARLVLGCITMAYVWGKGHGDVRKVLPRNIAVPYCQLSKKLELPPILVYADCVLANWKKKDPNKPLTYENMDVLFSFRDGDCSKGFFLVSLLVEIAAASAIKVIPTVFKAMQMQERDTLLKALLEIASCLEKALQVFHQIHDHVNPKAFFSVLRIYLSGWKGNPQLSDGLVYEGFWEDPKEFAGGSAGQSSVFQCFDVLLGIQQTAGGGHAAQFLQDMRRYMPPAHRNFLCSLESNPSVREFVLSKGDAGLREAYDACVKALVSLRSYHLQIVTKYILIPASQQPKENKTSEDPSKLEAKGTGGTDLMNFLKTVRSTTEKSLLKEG
Description: Cell-based (HeLa) assay for measurement of IDO1 inhibition (kynurenine levels in supernatant after IFNγ induction). Conditions: HeLa cells, IFNγ-induced IDO1, kynurenine in supernatant after 48 hour incubation; geometric mean of a minimum of four determinations. Put shortly: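 HeLa cells, 1,250 per well, treated with compound (0.5% DMSO final) plus IFNγ to induce IDO1, for 48 h. Supernatant kynurenine measured by TCA hydrolysis at 60 °C, then p-dimethylaminobenzaldehyde, absorbance 480 nm. EC50 from a four-parameter fit normalized to −/+IFNγ controls; geometric mean of at least four runs.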
For the compound `Cc1ccc(N/C(=N\O)c2ccnc3nc[nH]c23)cc1` [Example 94, N′-Hydroxy-N-(p-tolyl)-1H-imidazo[4,5-b]pyridine-7-carboximidamide], a half-maximal response (EC50) required 6350 nM.

The compound `C#Cc1cccc(N/C(=N\O)c2ccnc3nc[nH]c23)c1` [Example 95, N-(3-ethynylphenyl)-N′-hydroxy-1H-imidazo[4,5-b]pyridine-7-carboximidamide] displayed an EC50 of 302 nM.

In turn, `CCc1cccc(N/C(=N\O)c2ccnc3nc[nH]c23)c1` [Example 96, N-(3-Ethylphenyl)-N′-hydroxy-1H-imidazo[4,5-b]pyridine-7-carboximidamide] had a half-maximal effective concentration (EC50) of 803 nM.

The compound `C#Cc1cc(N/C(=N\O)c2ccnc3nc[nH]c23)ccc1F` [Example 97, N-(3-ethynyl-4-fluorophenyl)-N′-hydroxy-1H-imidazo[4,5-b]pyridine-7-carboximidamide] had a half-maximal effective concentration (EC50) of 380 nM.

With `O/N=C(\Nc1cccc(C(F)F)c1)c1ccnc2nc[nH]c12` [Example 98, N-(3-(difluoromethyl)phenyl)-N′-hydroxy-1H-imidazo[4,5-b]pyridine-7-carboximidamide], the EC50 is 550 nM.

Compound `O/N=C(\Nc1cccc(OC(F)(F)F)c1)c1ccnc2nc[nH]c12` [Example 99, N′-Hydroxy-N-(3-(trifluoromethoxy)phenyl)-1H-imidazo[4,5-b]pyridine-7-carboximidamide] came in with an EC50 of 602 nM.

The compound `O/N=C(\Nc1ccccc1)c1ccnc2nc[nH]c12` [Example 100, N′-hydroxy-N-phenyl-1H-imidazo[4,5-b]pyridine-7-carboximidamide] yielded an EC50 of 770 nM.

On to `O/N=C(\Nc1ccc(F)c(OC(F)(F)F)c1)c1ccnc2nc[nH]c12` [Example 101, N-(4-Fluoro-3-(trifluoromethoxy)phenyl)-N′-hydroxy-1H-imidazo[4,5-b]pyridine-7-carboximidamide], for which it took 845 nM to reach a half-maximal effect (EC50).

Take `O/N=C(\Nc1ccc2ccccc2c1)c1ccnc2nc[nH]c12` [Example 102, N′-hydroxy-N-(naphthalen-2-yl)-1H-imidazo[4,5-b]pyridine-7-carboximidamide]: the EC50 came to 1930 nM.

As for `O/N=C(\Nc1cc2ccccc2cc1Cl)c1ccnc2nc[nH]c12` [Example 103, N-(3-Chloronaphthalen-2-yl)-N′-hydroxy-1H-imidazo[4,5-b]pyridine-7-carboximidamide], the EC50 worked out at 8070 nM.

Compound `O/N=C(\Nc1cccc2ccccc12)c1ccnc2nc[nH]c12` [Example 104, N′-hydroxy-N-(naphthalen-1-yl)-1H-imidazo[4,5-b]pyridine-7-carboximidamide] yielded an EC50 of 1970 nM.

With `O/N=C(\Nc1ccc(Cl)c2ccccc12)c1ccnc2nc[nH]c12` [Example 105, N-(4-Chloronaphthalen-1-yl)-N′-hydroxy-1H-imidazo[4,5-b]pyridine-7-carboximidamide], the midpoint of the response, the EC50, lay at 3030 nM.

In the case of `COc1cc(N/C(=N\O)c2ccnc3nc[nH]c23)ccc1F` [Example 106, N-(4-Fluoro-3-methoxyphenyl)-N′-hydroxy-1H-imidazo[4,5-b]pyridine-7-carboximidamide], a half-maximal effect (EC50) was put at 5540 nM.

In turn, `Cc1nc2nccc(/C(=N/O)Nc3ccc(F)c(Cl)c3)c2[nH]1` [Example 107, N-(3-Chloro-4-fluorophenyl)-N′-hydroxy-2-methyl-1H-imidazo[4,5-b]pyridine-7-carboximidamide] registered an EC50 of 1920 nM.

The compound `CCc1nc2nccc(/C(=N/O)Nc3ccc(F)c(Cl)c3)c2[nH]1` [Example 108, N-(3-Chloro-4-fluorophenyl)-2-ethyl-N′-hydroxy-1H-imidazo[4,5-b]pyridine-7-carboximidamide] had an EC50 of 3190 nM.

Turning to `O/N=C(\Nc1ccc(F)c(Cl)c1)c1ccnc2nc(C3CC3)[nH]c12` [Example 109, N-(3-Chloro-4-fluorophenyl)-2-cyclopropyl-N′-hydroxy-1H-imidazo[4,5-b]pyridine-7-carboximidamide], the half-maximal effective concentration (EC50) came out at 1390 nM.

`COCc1nc2nccc(/C(=N/O)Nc3ccc(F)c(Cl)c3)c2[nH]1` [Example 110, N-(3-Chloro-4-fluorophenyl)-N′-hydroxy-2-(methoxymethyl)-1H-imidazo[4,5-b]pyridine-7-carboximidamide] gave a concentration for a half-maximal effect (EC50) of 2320 nM.

`O=c1onc(-c2ccnc3nc(CO)[nH]c23)n1-c1ccc(F)c(Cl)c1` [Example 111, 4-(3-Chloro-4-fluorophenyl)-3-(2-(hydroxymethyl)-1H-imidazo[4,5-b]pyridin-7-yl)-1,2,4-oxadiazol-5(4H)-one] came in with a 50% effective concentration (EC50) of 4450 nM.

The compound `O/N=C(\Nc1ccc(F)c(Cl)c1)c1ccnc2nc(CN3CCOCC3)[nH]c12` [Example 112, N-(3-Chloro-4-fluorophenyl)-N′-hydroxy-2-(morpholinomethyl)-1H-imidazo[4,5-b]pyridine-7-carboximidamide] displayed an EC50 of 9530 nM.

`CN(C)Cc1nc2nccc(/C(=N/O)Nc3ccc(F)c(Cl)c3)c2[nH]1` [Example 113, N-(3-Chloro-4-fluorophenyl)-2-((dimethylamino)methyl)-N′-hydroxy-1H-imidazo[4,5-b]pyridine-7-carboximidamide] registered an EC50 of 1840 nM.

With `CCNCc1nc2nccc(/C(=N/O)Nc3ccc(F)c(Cl)c3)c2[nH]1` [Example 114, N-(3-Chloro-4-fluorophenyl)-2-((ethylamino)methyl)-N′-hydroxy-1H-imidazo[4,5-b]pyridine-7-carboximidamide], the EC50 came out at 927 nM.

`O/N=C(\Nc1ccc(F)c(Cl)c1)c1ccnc2nc(CNCc3ccccc3)[nH]c12` [Example 115, 2-((Benzylamino)methyl)-N-(3-chloro-4-fluorophenyl)-N′-hydroxy-1H-imidazo[4,5-b]pyridine-7-carboximidamide] yielded an EC50 of 1760 nM.

`CC(C)NCc1nc2nccc(/C(=N/O)Nc3ccc(F)c(Cl)c3)c2[nH]1` [Example 116, N-(3-Chloro-4-fluorophenyl)-N′-hydroxy-2-((isopropylamino)methyl)-1H-imidazo[4,5-b]pyridine-7-carboximidamide] had an EC50 of 740 nM.

As for `O/N=C(\Nc1ccc(F)c(Cl)c1)c1ccnc2nc(CNCC3CC3)[nH]c12` [Example 117, N-(3-Chloro-4-fluorophenyl)-2-(((cyclopropylmethyl)amino)methyl)-N′-hydroxy-1H-imidazo[4,5-b]pyridine-7-carboximidamide], it took 765 nM to reach a half-maximal effect (EC50).

Compound `O/N=C(\Nc1ccc(F)c(Cl)c1)c1ccnc2nc(CNCC(F)(F)F)[nH]c12` [Example 118, N-(3-Chloro-4-fluorophenyl)-N′-hydroxy-2-(((2,2,2-trifluoroethyl)amino)methyl)-1H-imidazo[4,5-b]pyridine-7-carboximidamide] displayed a concentration for a half-maximal effect (EC50) of 4640 nM.

In the case of `O/N=C(\Nc1ccc(F)c(Cl)c1)c1ccnc2nc(CNC3CC3)[nH]c12` [Example 119, N-(3-Chloro-4-fluorophenyl)-2-((cyclopropylamino)methyl)-N′-hydroxy-1H-imidazo[4,5-b]pyridine-7-carboximidamide], the EC50 came out at 2150 nM.

Regarding `COCCCNCc1nc2nccc(/C(=N/O)Nc3ccc(F)c(Cl)c3)c2[nH]1` [Example 120, N-(3-Chloro-4-fluorophenyl)-N′-hydroxy-2-(((3-methoxypropyl)amino)methyl)-1H-imidazo[4,5-b]pyridine-7-carboximidamide], the EC50 turned out to be 1330 nM.

In the case of `O/N=C(\Nc1ccc(F)c(Cl)c1)c1ccnc2nc(CNCc3ccccn3)[nH]c12` [Example 121, N-(3-Chloro-4-fluorophenyl)-N′-hydroxy-2-(((pyridin-2-ylmethyl)amino)methyl)-1H-imidazo[4,5-b]pyridine-7-carboximidamide], the EC50 was 1370 nM.

The compound `COCCCN(C)Cc1nc2nccc(/C(=N/O)Nc3ccc(F)c(Cl)c3)c2[nH]1` [Example 122, N-(3-Chloro-4-fluorophenyl)-N′-hydroxy-2-(((3-methoxypropyl)(methyl)amino)methyl)-1H-imidazo[4,5-b]pyridine-7-carboximidamide] had a 50% effective concentration (EC50) of 1880 nM.

The compound `COc1ccccc1CNCc1nc2nccc(/C(=N/O)Nc3ccc(F)c(Cl)c3)c2[nH]1` [Example 123, N-(3-Chloro-4-fluorophenyl)-N′-hydroxy-2-(((2-methoxybenzyl)amino)methyl)-1H-imidazo[4,5-b]pyridine-7-carboximidamide] had an EC50 of 1910 nM.

As to `COCCNCc1nc2nccc(/C(=N/O)Nc3ccc(F)c(Cl)c3)c2[nH]1` [Example 124, N-(3-Chloro-4-fluorophenyl)-N′-hydroxy-2-(((2-methoxyethyl)amino)methyl)-1H-imidazo[4,5-b]pyridine-7-carboximidamide], the response was half-maximal at 2060 nM (EC50).

The compound `O/N=C(\Nc1ccc(F)c(Cl)c1)c1ccnc2nc(CNCCc3ccccn3)[nH]c12` [Example 125, N-(3-Chloro-4-fluorophenyl)-N′-hydroxy-2-(((2-(pyridin-2-yl)ethyl)amino)methyl)-1H-imidazo[4,5-b]pyridine-7-carboximidamide] had an EC50 of 2080 nM.

Compound `O/N=C(\Nc1ccc(F)c(Cl)c1)c1ccnc2nc(CNCc3cccnc3)[nH]c12` [Example 126, N-(3-Chloro-4-fluorophenyl)-N′-hydroxy-2-(((pyridin-3-ylmethyl)amino)methyl)-1H-imidazo[4,5-b]pyridine-7-carboximidamide] gave an EC50 of 2280 nM.

The compound `O/N=C(\Nc1ccc(F)c(Cl)c1)c1ccnc2nc(CNCC3CCCCO3)[nH]c12` (centres unmarked) [Example 127, N-(3-Chloro-4-fluorophenyl)-N′-hydroxy-2-((((tetrahydro-2H-pyran-2-yl)methyl)amino)methyl)-1H-imidazo[4,5-b]pyridine-7-carboximidamide] returned a 50% effective concentration (EC50) of 2360 nM.

In turn, `O/N=C(\Nc1ccc(F)c(Cl)c1)c1ccnc2nc(CNc3ccccc3)[nH]c12` [Example 128, N-(3-Chloro-4-fluorophenyl)-N′-hydroxy-2-((phenylamino)methyl)-1H-imidazo[4,5-b]pyridine-7-carboximidamide] gave an EC50 of 2400 nM.
